The target in the assay is T1, LARP6 (Homo sapiens, UniProt Q9BRS8).
T1 construct: LARP6*, amino-acids 72–303, His-tag
T1 sequence (Q9BRS8 72-303): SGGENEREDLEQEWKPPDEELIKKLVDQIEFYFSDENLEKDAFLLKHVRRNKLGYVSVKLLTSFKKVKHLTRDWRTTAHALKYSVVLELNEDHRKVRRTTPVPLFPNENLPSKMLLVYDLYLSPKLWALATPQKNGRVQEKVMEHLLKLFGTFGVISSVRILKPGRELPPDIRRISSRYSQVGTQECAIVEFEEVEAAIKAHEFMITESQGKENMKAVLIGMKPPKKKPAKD
The assay can be described thus: FP dissociation of LARP6* from fluorescein-labelled […]'SL RNA; intrinsic tryptophan fluorescence quenching of LARP6*; gel mobility shift with extracts of treated cells. Format: binding.

The values that follow come from publication PMC6344531, “Discovery and evaluation of inhibitor of LARP6 as specific antifibrotic compound” (Scientific Reports, 2019).

As usually defined, the IC50 is the midpoint of a concentration-inhibition curve. Regarding `Cc1cccn2c(=O)c3cc(C(=O)Nc4cccnc4)n(C)c3nc12` [C9], the IC50 was around 15 µM.
